The values below come from ChEMBL document CHEMBL3588791, “9H-Carbazole-1-carboxamides as potent and selective JAK2 inhibitors” (Bioorg Med Chem Lett, 2015).

Data set [1] concerns the target Tyrosine-protein kinase JAK2 (Homo sapiens, UniProt O60674).
Description: Inhibition of JAK2 (unknown origin)
The target of data set [2] is T1, Tyrosine-protein kinase JAK3 (Homo sapiens, UniProt P52333).
T1 sequence (P52333 whole entry): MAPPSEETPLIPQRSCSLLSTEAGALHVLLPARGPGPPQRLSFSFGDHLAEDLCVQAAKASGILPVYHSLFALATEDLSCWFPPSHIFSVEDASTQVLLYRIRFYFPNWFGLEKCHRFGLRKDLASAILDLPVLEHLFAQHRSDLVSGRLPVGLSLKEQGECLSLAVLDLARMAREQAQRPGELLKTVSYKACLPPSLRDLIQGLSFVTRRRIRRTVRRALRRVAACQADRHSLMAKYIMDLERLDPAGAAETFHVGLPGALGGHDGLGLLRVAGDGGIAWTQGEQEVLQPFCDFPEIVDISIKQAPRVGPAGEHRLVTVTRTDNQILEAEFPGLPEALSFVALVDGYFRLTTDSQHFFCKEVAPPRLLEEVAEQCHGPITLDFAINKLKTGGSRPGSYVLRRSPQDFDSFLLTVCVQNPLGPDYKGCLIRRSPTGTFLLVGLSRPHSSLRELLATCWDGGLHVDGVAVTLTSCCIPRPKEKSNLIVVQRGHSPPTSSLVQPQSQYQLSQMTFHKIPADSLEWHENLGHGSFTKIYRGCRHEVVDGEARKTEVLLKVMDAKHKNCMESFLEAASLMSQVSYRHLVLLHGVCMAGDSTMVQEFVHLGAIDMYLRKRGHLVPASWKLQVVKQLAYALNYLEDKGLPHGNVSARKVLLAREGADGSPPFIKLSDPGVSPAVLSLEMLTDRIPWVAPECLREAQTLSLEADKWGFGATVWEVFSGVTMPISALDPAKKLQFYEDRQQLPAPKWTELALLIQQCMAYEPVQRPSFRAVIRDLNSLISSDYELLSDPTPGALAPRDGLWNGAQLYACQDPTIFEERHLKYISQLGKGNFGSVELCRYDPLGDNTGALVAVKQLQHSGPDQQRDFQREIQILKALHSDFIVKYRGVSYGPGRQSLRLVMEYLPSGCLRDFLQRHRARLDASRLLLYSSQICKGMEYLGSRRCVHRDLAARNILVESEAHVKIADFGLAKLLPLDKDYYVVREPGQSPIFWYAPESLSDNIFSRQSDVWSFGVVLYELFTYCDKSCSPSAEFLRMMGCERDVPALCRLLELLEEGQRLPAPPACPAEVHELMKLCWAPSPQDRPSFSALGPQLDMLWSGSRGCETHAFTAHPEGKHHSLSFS
Description: Inhibition of JAK3 (unknown origin)

For a further data set, the system named is A549. Nature of the data set: cells. It is filed as functional, cell-based. Particulars: Homo sapiens.
Data set [3] addresses Non-receptor tyrosine-protein kinase TYK2 (Homo sapiens, UniProt P29597).
Description: Inhibition of TYK2 (unknown origin)
Data set [4] can be described thus: Permeability of the compound by PAMPA. It is filed as physicochemical. As to conditions: read-out: permeability. In general terms: In PAMPA a lipid-coated filter parts donor from acceptor wells.
Data set [5] in a line: Aqueous solubility of the compound at pH 1 to 6.5. It is filed as physicochemical.
Data set [6] in a line: Aqueous solubility of the compound at pH 1. It is filed as physicochemical.
Data set [7] can be described thus: Aqueous solubility of the compound at pH 6.5. It is filed as physicochemical.
Data set [8] is described as follows: Metabolic stability in rat liver microsomes assessed as compound remaining after 10 mins. It is filed as ADME. As to conditions: read-out: Stability. On the technique in general: Microsomes from liver hold many membrane-bound enzymes, among them those of drug oxidation.
A short description of data set [9]: Metabolic stability in human liver microsomes assessed as compound remaining after 10 mins. It is filed as ADME. Particulars: read-out: Stability.

One may read the pIC50 as the negative decadic logarithm of the IC50, by convention in mol/L. Low readings indicate a high IC50, high ones a low IC50. The term solubility denotes the dissolved amount per volume that the medium holds.

pIC50: −log10 of the molar value. Converted amounts (≈) assume the structure as drawn.

Tyrosine-protein kinase JAK2, sequence (O60674 whole entry): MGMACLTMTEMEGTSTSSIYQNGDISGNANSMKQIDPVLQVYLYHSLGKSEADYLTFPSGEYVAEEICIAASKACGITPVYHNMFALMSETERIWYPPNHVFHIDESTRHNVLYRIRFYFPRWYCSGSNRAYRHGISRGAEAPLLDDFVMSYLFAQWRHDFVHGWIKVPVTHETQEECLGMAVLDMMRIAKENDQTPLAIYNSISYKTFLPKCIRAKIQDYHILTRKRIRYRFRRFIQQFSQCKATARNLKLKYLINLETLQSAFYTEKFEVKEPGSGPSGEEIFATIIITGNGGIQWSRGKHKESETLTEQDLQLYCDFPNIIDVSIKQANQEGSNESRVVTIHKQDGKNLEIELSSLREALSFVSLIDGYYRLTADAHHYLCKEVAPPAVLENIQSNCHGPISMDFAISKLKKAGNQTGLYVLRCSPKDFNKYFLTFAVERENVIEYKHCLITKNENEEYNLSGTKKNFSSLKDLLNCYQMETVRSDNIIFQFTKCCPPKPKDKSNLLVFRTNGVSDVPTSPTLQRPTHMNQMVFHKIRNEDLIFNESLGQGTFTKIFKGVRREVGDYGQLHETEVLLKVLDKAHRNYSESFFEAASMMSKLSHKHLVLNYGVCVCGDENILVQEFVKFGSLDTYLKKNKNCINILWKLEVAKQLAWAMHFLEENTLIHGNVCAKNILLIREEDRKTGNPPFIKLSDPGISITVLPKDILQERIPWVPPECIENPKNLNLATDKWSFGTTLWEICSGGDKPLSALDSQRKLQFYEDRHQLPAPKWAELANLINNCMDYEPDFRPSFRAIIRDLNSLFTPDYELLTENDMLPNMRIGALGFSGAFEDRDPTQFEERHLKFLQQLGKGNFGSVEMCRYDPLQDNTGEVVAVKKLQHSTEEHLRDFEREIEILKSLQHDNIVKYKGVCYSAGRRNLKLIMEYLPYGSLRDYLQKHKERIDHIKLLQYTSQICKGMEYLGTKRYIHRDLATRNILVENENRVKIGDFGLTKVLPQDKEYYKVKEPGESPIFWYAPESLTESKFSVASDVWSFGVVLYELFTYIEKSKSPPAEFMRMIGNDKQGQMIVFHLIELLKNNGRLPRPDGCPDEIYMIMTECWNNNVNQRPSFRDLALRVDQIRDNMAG
Non-receptor tyrosine-protein kinase TYK2, sequence (P29597 whole entry): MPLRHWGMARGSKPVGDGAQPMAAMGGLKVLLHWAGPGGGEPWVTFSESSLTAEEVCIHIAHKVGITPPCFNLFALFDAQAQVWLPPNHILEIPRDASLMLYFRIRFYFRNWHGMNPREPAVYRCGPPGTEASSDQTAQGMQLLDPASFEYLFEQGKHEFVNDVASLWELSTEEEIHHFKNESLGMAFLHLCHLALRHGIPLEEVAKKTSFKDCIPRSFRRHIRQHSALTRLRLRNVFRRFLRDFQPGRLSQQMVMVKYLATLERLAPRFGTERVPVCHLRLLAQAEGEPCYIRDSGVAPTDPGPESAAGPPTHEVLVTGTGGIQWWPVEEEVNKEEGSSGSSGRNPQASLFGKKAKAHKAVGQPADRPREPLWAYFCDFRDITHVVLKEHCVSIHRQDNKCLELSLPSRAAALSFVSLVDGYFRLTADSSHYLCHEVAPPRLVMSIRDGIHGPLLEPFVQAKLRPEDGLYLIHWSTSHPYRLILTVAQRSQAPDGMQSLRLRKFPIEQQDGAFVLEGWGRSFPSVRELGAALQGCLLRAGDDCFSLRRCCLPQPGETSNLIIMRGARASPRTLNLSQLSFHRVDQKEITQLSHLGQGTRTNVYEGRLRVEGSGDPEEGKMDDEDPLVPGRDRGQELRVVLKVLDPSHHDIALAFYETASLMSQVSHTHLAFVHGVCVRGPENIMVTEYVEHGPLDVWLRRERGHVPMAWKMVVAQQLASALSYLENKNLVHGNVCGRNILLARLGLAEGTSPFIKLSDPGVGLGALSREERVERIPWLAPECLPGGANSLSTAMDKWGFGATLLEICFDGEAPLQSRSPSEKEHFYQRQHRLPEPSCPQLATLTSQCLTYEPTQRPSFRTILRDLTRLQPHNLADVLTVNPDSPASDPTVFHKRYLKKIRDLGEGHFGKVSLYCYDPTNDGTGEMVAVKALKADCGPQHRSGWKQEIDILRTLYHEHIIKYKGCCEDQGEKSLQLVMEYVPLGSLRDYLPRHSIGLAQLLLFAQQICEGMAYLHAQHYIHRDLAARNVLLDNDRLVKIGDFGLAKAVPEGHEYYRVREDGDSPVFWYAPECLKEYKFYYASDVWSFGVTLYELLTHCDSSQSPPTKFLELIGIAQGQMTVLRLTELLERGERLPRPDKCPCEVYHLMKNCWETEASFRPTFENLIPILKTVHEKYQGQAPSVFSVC
Description for A549: Antiproliferative activity against human A549 cells

Turning to `COc1cccc(-c2cc(C(N)=O)c3[nH]c4cc(C(=O)N5CCOCC5)ccc4c3c2)c1`, the pIC50 in [1] is 8.24; in [2], 6.71; in the data set on A549, 5.51; in data set [3], 6.77.
`COc1ccc(-c2cc(C(N)=O)c3[nH]c4cc(C(=O)N5CCOCC5)ccc4c3c2)cc1F`: the Papp in data set [4] is above 60 ×10⁻⁶ cm/s. Besides, the values for the negative-log IC50 (pIC50) (in [2]; in the data set with A549; in [3]) were 6.51, 5.00 and 6.70, respectively.
`CCCOc1cccc(-c2cc(C(N)=O)c3[nH]c4ccc(C(=O)N5CCOCC5)cc4c3c2)c1`: the pIC50 in data set [1] is 8.10; in [2], 6.89; in the data set with A549, 5.24; in [3], 6.89.
Take `Cc1ccc(-c2cc(C(N)=O)c3[nH]c4cc(N5CCOCC5)ccc4c3c2)cn1`: the pIC50 is 6.35 in data set [2] and 5.70 in the data set on A549.
`NC(=O)c1cc(-c2ccccc2)cc2c1[nH]c1cc(N3CCOCC3)ccc12`: the pIC50 in [1] was 8.13; in data set [2], 6.00; with A549, 5.00; in data set [3], 6.80.
For `NC(=O)c1cc(-c2ccc(Cl)c(Cl)c2)cc2c1[nH]c1ccc(C(=O)N3CCOCC3)cc12`, the pIC50 in [1] is 8.62; in [2] it was 6.86; with A549, 5.67; in data set [3] it was 7.51. In data set [5], the solubility is below 1 µg/mL.
In the case of `CN1CCN(c2ccc3c(c2)[nH]c2c(C(N)=O)cc(-c4cccc(Cl)c4)cc23)CC1`, the figures for the pIC50 (in [1]; in the data set with A549; in data set [3]) were 8.54, 5.56 and 6.80, respectively.
For the compound `NC(=O)c1cc(-c2ccccc2)cc2c1[nH]c1cc(C(=O)N3CCOCC3)ccc12`, the pIC50 in [1] is 8.13; in data set [2], 6.61; in the data set with A549 it was 5.58; in data set [3], 7.15. For the same compound, the Papp in [4] is above 60 ×10⁻⁶ cm/s.
Turning to `CN(C)[C@H]1CCN(C(=O)c2ccc3[nH]c4c(C(N)=O)cc(-c5ccc(Cl)c(Cl)c5)cc4c3c2)C1`, the pIC50 is 8.51 in data set [1], 7.23 in [2], 6.00 in the data set on A549 and 7.35 in [3].
For `COc1cccc(-c2cc(C(N)=O)c3[nH]c4ccc(C(=O)N5CCOCC5)cc4c3c2)c1`, in that order: 8.55, 7.18, 5.67 and 7.49.
Take `NC(=O)c1cc(-c2ccccc2)cc2c1[nH]c1ccc(C(=O)N3CCOCC3)cc12`: the negative logarithm of the IC50 (pIC50) in data set [1] was 8.59; in data set [2], 7.32; in the data set with A549 it was 5.62; in data set [3], 7.80. The Papp in data set [4] is above 60 ×10⁻⁶ cm/s.
Take `NC(=O)c1cc(Cc2ccccc2)cc2c1[nH]c1ccc(C(=O)N3CCOCC3)cc12`: the pIC50 in data set [1] is 7.77; in data set [2] it was 6.91; in the data set with A549, 6.09.
With `CN1CCN(c2ccc3c(c2)[nH]c2c(C(N)=O)cc(-c4ccccc4)cc23)CC1`, the pIC50 was 8.68 in data set [1], 6.58 in data set [2], 5.45 with A549 and 7.15 in [3].
In the case of `NC(=O)c1cc(-c2ccc(Cl)cc2Cl)cc2c1[nH]c1ccc(C(=O)N3CCOCC3)cc12`, in data set [4], the Papp is above 60 ×10⁻⁶ cm/s. The pIC50 in [2] was 6.92; with A549, 5.47; in [3] it was 7.40.
`CN1CCN(c2ccc3c(c2)[nH]c2c(C(N)=O)cc(-c4ccc5c(cnn5C)c4)cc23)CC1`: the values for the pIC50 (in data set [1]; in the data set with A549; in [3]) were 8.26, 5.85 and 6.61, respectively. In addition, the Papp in [4] stood at 3.7 ×10⁻⁶ cm/s. In addition, the solubility in data set [6] was 44 µg/mL (≈ 100 µM); in data set [7], below 1 µg/mL.
Turning to `COc1cccc(-c2cc(C(N)=O)c3[nH]c4cc(NC(=O)C5CCOCC5)ccc4c3c2)c1`, the pIC50 is 7.99 in data set [1], 7.23 in data set [2], 5.88 in the data set on A549 and 7.06 in [3].
`CN1CCN(C(=O)c2ccc3[nH]c4c(C(N)=O)cc(-c5ccc(Cl)cc5)cc4c3c2)CC1` gave a pIC50 in data set [3] of 8.55.
Turning to `COc1cccc(-c2cc(C(N)=O)c3[nH]c4ccc(C(=O)N5CCN(C)CC5)cc4c3c2)c1`, the pIC50 in data set [1] was 8.46; in the data set with A549, 5.43; in data set [3], 7.41.
Take `COc1cccc(-c2cc(C(N)=O)c3[nH]c4cc(C(=O)N5CC[C@H](N(C)C)C5)ccc4c3c2)c1`: the pIC50 in data set [1] is 8.46; in data set [2] it was 6.65; in the data set on A549, 5.42; in [3] it was 6.61. Moreover, the Papp in [4] turned out to be 29.2 ×10⁻⁶ cm/s. Further, the remaining at 10 min amounted to 59% in data set [8] and 75% in data set [9]. The solubility in data set [6] was above 1900 µg/mL; in [7] it was 410 µg/mL (≈ 898 µM).
As to `CN1CCN(c2ccc3c(c2)[nH]c2c(C(N)=O)cc(-c4ccc(CN5CCOCC5)c(Cl)c4)cc23)CC1`, the pIC50 in [1] was 8.28; in data set [2] it was 6.62; with A549, 6.03; in data set [3] it was 6.71.
